Laboratory results published in patent publication US6841519B1, “Isoxazoline derivatives and herbicides containing the same as the active ingredient” (Kumiai Chemical Industry Co., Ltd., priority 1999, dated 2005).

Experiments:
Type in all cases: in vivo
[1] = tested on: Echinochloa crus-galli (L.) Beauv. var. crusgalli (Ec); test: Test for herbicidal effect by upland foliage treatment (Test Example 3); conditions: 100 g/10 a active ingredient, examined at 14th day
Method in brief: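 Scored 14 days post-spray against a graded standard: greenhouse-grown Ec, 2 weeks old in upland soil, received whole-foliage application of diluted wettable powder (100 g active ingredient per 10 ares, spray volume 100 L per 10 ares).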

[2] = tested on: Echinochloa oryzicola Vasing. (Eo); test: Test for herbicidal effect by paddy field soil treatment (Test Example 1); conditions: application amount (active ingredient) 100 g/10 a, examined at the 21st day from the treatment, index per Table 40
Method in brief: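 Scored on a standard scale at day 21 in the greenhouse: herbicidal effect of wettable powder applied to flooded water (3 cm depth) at 100 g a.i./10 ares, one day after sowing Eo into puddled paddy soil.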

[3] = tested on: Setaria viridis (L.) Beauv. (Se); test: Test for herbicidal effect by upland field soil treatment (Test Example 2), Se; conditions: 100 g/10 a active ingredient, examined at 21st day
Method in brief: (§1)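 Pre-emergence soil treatment: wettable powder diluted in water and sprayed on soil just sown with Ec and Se seeds, delivering 100 g active ingredient per 10 ares in 100 liters per 10 ares. Herbicidal effect was rated against a fixed scale 21 days later, after greenhouse growth.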

[4] = tested on: Echinochloa crus-galli (L.) Beauv. var. crusgall (Ec); test: Test for herbicidal effect by upland field soil treatment (Test Example 2), Ec; conditions: 100 g/10 a active ingredient, examined at 21st day
Method in brief: as §1

| SMILES | Herbicidal effect to Ec [1] | Herbicidal effect to Eo [2] | Herbicidal effect to Se [3] | Herbicidal effect to Ec [4] |
| --- | --- | --- | --- | --- |
| CC1(C)CC(S(=O)(=O)Cc2ccc(F)cc2Cl)=NO1 [Compound 1-538] | 5 (A herbicidal effect or phytotoxicity of 90% or more) | 5 (A herbicidal effect or phytotoxicity of 90% or more) | 5 (A herbicidal effect or phytotoxicity of 90% or more) | 5 (A herbicidal effect or phytotoxicity of 90% or more) |
| CC1(C)CC(S(=O)(=O)Cc2ccc(Cl)cc2[N+](=O)[O-])=NO1 [Compound 1-539] | 5 (A herbicidal effect or phytotoxicity of 90% or more) | 5 (A herbicidal effect or phytotoxicity of 90% or more) | 5 (A herbicidal effect or phytotoxicity of 90% or more) | 5 (A herbicidal effect or phytotoxicity of 90% or more) |
| Cc1ccc([N+](=O)[O-])c(CS(=O)(=O)C2=NOC(C)(C)C2)c1 [Compound 1-540] | 5 (A herbicidal effect or phytotoxicity of 90% or more) | 5 (A herbicidal effect or phytotoxicity of 90% or more) | 5 (A herbicidal effect or phytotoxicity of 90% or more) | 5 (A herbicidal effect or phytotoxicity of 90% or more) |
| CC1(C)CC(S(=O)(=O)Cc2ccc(F)c(C(F)(F)F)c2)=NO1 [Compound 1-541] | 4 (A herbicidal effect or phytotoxicity of 70% to less than 90%) | 5 (A herbicidal effect or phytotoxicity of 90% or more) | 5 (A herbicidal effect or phytotoxicity of 90% or more) | 5 (A herbicidal effect or phytotoxicity of 90% or more) |
| CC1(C)CC(S(=O)(=O)Cc2cc(F)cc(C(F)(F)F)c2)=NO1 [Compound 1-542] | 4 (A herbicidal effect or phytotoxicity of 70% to less than 90%) | 5 (A herbicidal effect or phytotoxicity of 90% or more) | 5 (A herbicidal effect or phytotoxicity of 90% or more) | 5 (A herbicidal effect or phytotoxicity of 90% or more) |
| CC1(C)CC(S(=O)(=O)Cc2cc(C(F)(F)F)cc(C(F)(F)F)c2)=NO1 [Compound 1-543] | 4 (A herbicidal effect or phytotoxicity of 70% to less than 90%) | 5 (A herbicidal effect or phytotoxicity of 90% or more) | 5 (A herbicidal effect or phytotoxicity of 90% or more) | 5 (A herbicidal effect or phytotoxicity of 90% or more) |
| CC1(C)CC(S(=O)(=O)Cc2cc(C(F)(F)F)ccc2C(F)(F)F)=NO1 [Compound 1-544] | 5 (A herbicidal effect or phytotoxicity of 90% or more) | 5 (A herbicidal effect or phytotoxicity of 90% or more) | 5 (A herbicidal effect or phytotoxicity of 90% or more) | 5 (A herbicidal effect or phytotoxicity of 90% or more) |
| CC1(C)CC(S(=O)(=O)Cc2cc(Br)cc(Br)c2)=NO1 [Compound 1-545] | 5 (A herbicidal effect or phytotoxicity of 90% or more) | 5 (A herbicidal effect or phytotoxicity of 90% or more) | 5 (A herbicidal effect or phytotoxicity of 90% or more) | 5 (A herbicidal effect or phytotoxicity of 90% or more) |
| CC1(C)CC(S(=O)(=O)Cc2c(F)cccc2I)=NO1 [Compound 1-548] | 5 (A herbicidal effect or phytotoxicity of 90% or more) | 5 (A herbicidal effect or phytotoxicity of 90% or more) | 5 (A herbicidal effect or phytotoxicity of 90% or more) | 5 (A herbicidal effect or phytotoxicity of 90% or more) |
| Cc1ccc(F)c(CS(=O)(=O)C2=NOC(C)(C)C2)c1F [Compound 1-550] | 5 (A herbicidal effect or phytotoxicity of 90% or more) | 5 (A herbicidal effect or phytotoxicity of 90% or more) | 5 (A herbicidal effect or phytotoxicity of 90% or more) | 5 (A herbicidal effect or phytotoxicity of 90% or more) |
| CCCc1cccc(F)c1CS(=O)(=O)C1=NOC(C)(C)C1 [Compound 1-553] | 5 (A herbicidal effect or phytotoxicity of 90% or more) | 5 (A herbicidal effect or phytotoxicity of 90% or more) | 5 (A herbicidal effect or phytotoxicity of 90% or more) | 5 (A herbicidal effect or phytotoxicity of 90% or more) |
| CC1(C)CC(S(=O)(=O)Cc2c(Br)cccc2Br)=NO1 [Compound 1-554] | 5 (A herbicidal effect or phytotoxicity of 90% or more) | 5 (A herbicidal effect or phytotoxicity of 90% or more) | 5 (A herbicidal effect or phytotoxicity of 90% or more) | 5 (A herbicidal effect or phytotoxicity of 90% or more) |
| C#CCOc1ccccc1CS(=O)(=O)C1=NOC(C)(C)C1 [Compound 1-559] | 5 (A herbicidal effect or phytotoxicity of 90% or more) | 5 (A herbicidal effect or phytotoxicity of 90% or more) | 5 (A herbicidal effect or phytotoxicity of 90% or more) | 5 (A herbicidal effect or phytotoxicity of 90% or more) |
| Cc1cccc(Cl)c1CS(=O)(=O)C1=NOC(C)(C)C1 [Compound 1-560] | 4 (A herbicidal effect or phytotoxicity of 70% to less than 90%) | 5 (A herbicidal effect or phytotoxicity of 90% or more) | 5 (A herbicidal effect or phytotoxicity of 90% or more) | 5 (A herbicidal effect or phytotoxicity of 90% or more) |
| CC1(C)CC(S(=O)(=O)Cc2c(Cl)cccc2OC(F)F)=NO1 [Compound 1-561] | 4 (A herbicidal effect or phytotoxicity of 70% to less than 90%) | 5 (A herbicidal effect or phytotoxicity of 90% or more) | 5 (A herbicidal effect or phytotoxicity of 90% or more) | 5 (A herbicidal effect or phytotoxicity of 90% or more) |
| CC1(C2CC2)CC(S(=O)(=O)Cc2ccccc2OC(F)F)=NO1 (stereo not shown) [Compound 1-562] | 4 (A herbicidal effect or phytotoxicity of 70% to less than 90%) | 5 (A herbicidal effect or phytotoxicity of 90% or more) | 5 (A herbicidal effect or phytotoxicity of 90% or more) | 5 (A herbicidal effect or phytotoxicity of 90% or more) |
